Assay results from ChEMBL document CHEMBL4020796, “Evaluation of guggulsterone derivatives as novel kidney cell protective agents against cisplatin-induced nephrotoxicity” (2017).
Active and inactive are the calls of the source. The calls are words filed in the database; no cut-off is given here.

What was measured:
LLC-PK1 [1] = experiment: Renoprotective activity in pig LLC-PK1 cells assessed as inhibition of cisplatin-induced oxidative stress by measuring cell viability up to 250 uM after 24 hrs by MTT assay; assay type: functional, cell-based; conditions: Sus scrofa
LLC-PK1 [2] = experiment: Renoprotective activity in pig LLC-PK1 cells assessed as inhibition of cisplatin-induced cytotoxicity by measuring cell viability at 10 to 50 uM by phase contrast microscopic method; assay type: functional, cell-based; conditions: Sus scrofa
LLC-PK1 [3] = experiment: Renoprotective activity in pig LLC-PK1 cells assessed as inhibition of cisplatin-induced oxidative stress by measuring cell viability at 25 uM after 24 hrs by MTT assay relative to control; assay type: functional, Sus scrofa
LLC-PK1 [4] = experiment: Renoprotective activity in pig LLC-PK1 cells assessed as inhibition of cisplatin-induced cell death by measuring cell viability at 50 uM by flow cytometry; assay type: functional, cell-based; conditions: Sus scrofa
LLC-PK1 [5] = experiment: Renoprotective activity in pig LLC-PK1 cells assessed as inhibition of cisplatin-induced cleaved caspase-3 levels at 10 to 50 uM after 24 hrs by Western blot method; assay type: functional, cell-based; conditions: Sus scrofa
Sus scrofa [6] = species: Sus scrofa; experiment: Inhibition of cisplatin-induced MAPK JNK phosphorylation in pig LLC-PK1 cells at 10 to 50 uM after 24 hrs by Western blot method; assay type: cell-based
Sus scrofa [7] = species: Sus scrofa; experiment: Inhibition of cisplatin-induced MAPK p38 phosphorylation in pig LLC-PK1 cells at 10 to 50 uM after 24 hrs by Western blot method; assay type: cell-based

For `C/C=C1/[C@@H](n2cc(CCCC)nn2)C[C@H]2[C@@H]3CCC4=CC(=O)CC[C@]4(C)[C@H]3CC[C@]12C`, the inhibition (LLC-PK1 [1]) was “inactive”.

In the case of `C/C=C1/[C@@H](n2cc(CO)nn2)C[C@H]2[C@@H]3CCC4=CC(=O)CC[C@]4(C)[C@H]3CC[C@]12C`, the inhibition (LLC-PK1 [2]) is reported as “Active”, the Activity (LLC-PK1 [3]) is reported as greater than 90% and the inhibition (LLC-PK1 [4]) is reported as “Active”. The inhibition (LLC-PK1 [5]) was “Active”, the inhibition (Sus scrofa [6]) was “Active” and the inhibition (Sus scrofa [7]) was “Active”.

In the case of `C/C=C1/[C@@H](n2cc(-c3ccccc3)nn2)C[C@H]2[C@@H]3CCC4=CC(=O)CC[C@]4(C)[C@H]3CC[C@]12C`, the inhibition (LLC-PK1 [1]) is reported as “Active”.

In the case of `C/C=C1/[C@@H](n2cc(-c3ccc(F)cc3)nn2)C[C@H]2[C@@H]3CCC4=CC(=O)CC[C@]4(C)[C@H]3CC[C@]12C`, the inhibition (LLC-PK1 [1]) is reported as “Active”.

For `C/C=C1/[C@@H](n2cc(-c3ccc(C)cc3)nn2)C[C@H]2[C@@H]3CCC4=CC(=O)CC[C@]4(C)[C@H]3CC[C@]12C`, the inhibition (LLC-PK1 [1]) was “Active”.

`C/C=C1/[C@@H](n2cc(CCCC#N)nn2)C[C@H]2[C@@H]3CCC4=CC(=O)CC[C@]4(C)[C@H]3CC[C@]12C` was tested, and the inhibition (LLC-PK1 [1]) was “inactive”.
